Columns and labels:
Format in all cases: physicochemical
[1] = Dynamic vapor sorption (DVS) analysis; details: 25° C., 5 to 95% RH
Experimental: Different polymorphic forms of a compound may have different hygroscopic properties. […] A sample weight of less than 10 mg was loaded into a metal-coated quartz pan for analysis. The sample was analyzed at 25° C. after equilibrated to 5% relative humidity (RH) in 10% RH steps from 5 to 95% RH (adsorption cycle) and from 95 to 5% RH (desorption cycle). The movement from one step to the next occurred either after satisfying the equilibrium criterion of 0.01% weight change in 5 minutes or, if the equilibrium criterion was not met, after 90 minutes. The percent weight change values are calculated using Microsoft Excel®. The DVS analysis was carried out using a TA Instruments Q5000 Dynamic Vapor Sorption analyzer. […]

[2] = Slurry experiments using Compound 1 crystalline Form A hydrate in methanol and methanol:water, XRPD; details: two days, 30 mg
Experimental: The nature of this peak is unknown. […]
(§1) A Rigaku SmartLab X-Ray Diffractometer was configured in Bragg-Brentano reflection geometry equipped with a beam stop and knife edge to reduce incident beam and air scatter. No filter was used for crystalline Form C anhydrate crystalline Form E DMSO solvate. Spinning rate of 17 rpm was used for crystalline Form C anhydrate analysis. Other parameters are the same as described in Table 27.

[3] = Stability study of crystalline Forms A and C at 25° C./60% RH and 40° C./75% RH, analysed by XRPD; details: after 4 weeks
Experimental: A sample of each of crystalline Forms A and C was placed in an uncapped vial and exposed to 25° C./60% RH and 40° C./75% relative humidity (“RH”) for 4 weeks (Table 24). The resultant samples were analyzed by XRPD at T=1, 2, and 4 weeks to evaluate their physical stability.
as §1

[4] = Relative stability of Form A hydrate and Form C anhydrate in ethanol and ethanol/water slurries
Experimental: The relative stability of the crystalline Form A hydrate and Compound 1 crystalline Form C anhydrate was evaluated in ethanol and ethanol/water between ambient temperature and 50° C.
Crystalline Form C anhydrate was prepared by slurrying crystalline Form A hydrate in absolute ethanol at 40° C. for about two days (Sample 1, FIG. 25A). Attempts to prepare amorphous material by cold precipitation and lyophilization were carried out but were unsuccessful. […] The lyophilization experiment produced material having an XRPD pattern consistent with crystalline Form E DMSO solvate (FIG. 25C).
To prepare the crystalline Form C anhydrate, 249 mg of Compound 1 crystalline Form A hydrate was placed in an 8 mL glass vial followed by 2.0 mL of absolute ethanol. The resulting slurry was stirred magnetically at 40° C. for about two days. The slurry was vacuum filtered and the solids allowed to air dry for 15 minutes at room temperature.

[5] = Conversion rate of crystalline Form A hydrate to crystalline Form C anhydrate in ethanol at about 50° C., XRPD; details: slurry in absolute ethanol at about 50° C., 1 hour
Experimental: The conversion rate of the crystalline Form A hydrate to the crystalline Form C anhydrate in ethanol at about 50° C. was investigated (Table 25). Slurries were prepared using Compound 1 crystalline Form A hydrate as starting material. […] Each slurry was stirred magnetically at about 50° C. and subsequently vacuum filtered to collect the solid at given times. The resulting solids were analyzed by XRPD immediately. […] A Rigaku SmartLab X-Ray Diffractometer was configured in Bragg-Brentano reflection geometry equipped with a beam stop and knife edge to reduce incident beam and air scatter. […] Spinning rate of 17 rpm was used for crystalline Form C anhydrate analysis. Other parameters are the same as described in Table 27.

[6] = listed as Compound 1 crystalline Form A hydrate

CN1Oc2cc3c(c4cccc(c24)C1=O)[C@H](CCl)CN3C(=O)c1cc2cc(NC(=O)c3cc4ccccc4[nH]3)ccc2[nH]1 [Crystalline Form C anhydrate, (S)—N-(2-(10-(Chloromethyl)-5-methyl-4-oxo-5,8,9,10-tetrahydro-4H-pyrrolo[3′,2′: 5,6]naphtho[1,8-de][1,2]oxazine-8-carbonyl)-1H-indol-5-yl)-1H-indole-2-carboxamide]
DVS weight gain ([1]; listed as Compound 1 Crystalline Form C anhydrate): Weight gain of 0.35% at 5-95% RH
DVS weight gain ([1]; listed as Compound 1 crystalline Form C anhydrate): 0.35%

CN1Oc2cc3c(c4cccc(c24)C1=O)[C@H](CCl)CN3C(=O)c1cc2cc(NC(=O)c3cc4ccccc4[nH]3)ccc2[nH]1 [Crystalline Form A hydrate, (S)—N-(2-(10-(Chloromethyl)-5-methyl-4-oxo-5,8,9,10-tetrahydro-4H-pyrrolo[3′,2′: 5,6]naphtho[1,8-de][1,2]oxazine-8-carbonyl)-1H-indol-5-yl)-1H-indole-2-carboxamide]
XRPD Result ([2]; 95:5 MeOH:water): remained that of the crystalline Form A hydrate
XRPD Result ([2]; MeOH): remained that of the crystalline Form A hydrate
hygroscopicity (DVS) ([1]; listed as Compound 1 Crystalline Form A hydrate): Slightly hygroscopic
DVS weight gain [1, 6]: less than 0.5%
hygroscopicity (DVS) [1, 6]: slightly hygroscopic
crystalline Form conversion (physical stability) [3]: No crystalline Form conversion was observed
form conversion ([4]; absolute ethanol, about 40° C., about two days): converts to the crystalline Form C anhydrate
relative stability (form conversion) ([4]; ethanol and ethanol/water, between ambient temperature and 50° C.): converted to the crystalline Form C anhydrate except when the water activity of the solvent was greater than 0.31
form conversion ([4]; ethanol at about 50° C., slurrying for four days): converted to crystalline Form C anhydrate
XRPD Result [5]: converted to crystalline Form C anhydrate completely

Source: US20260250300A1, “POLYMORPHS AND THEIR USE FOR TREATING CANCER” (Cairn Therapeutics, Inc., priority 2023, published 2026)
